# Data published in patent US8497245B2, “Trypsin-like serine protease inhibitors, their preparation and use as selective inhibitors of the clotting factors IIa and Xa” (The Medicines Company (Leipzig) GmbH, priority 2010, dated 2013).
# Biological target: T1, human Factor Xa (Homo sapiens, UniProt P00742)
# T1 construct: human Factor Xa from Enzyme Research Laboratories; purchased Enzyme Research Laboratories
# Test: Inhibition constants for human factor Xa, chromogenic substrate assay
# Format: biochemical
# Settings: 25° C., Pefachrome FXa substrate, average of at least three determinations; read-out: Ki h FXa
# Description: (§1) The inhibitory effect against the individual purified enzymes was determined in analogy to a previously disclosed method (Stürzebecher et al., J. Med. Chem., 40, 3091-3099 (1997)).
# (§2) 200 μL of TBS (0.05 M trishydroxymethylaminomethane; 0.154 M NaCl, 2% ethanol, pH 8.0)
# (§3) The release of p-nitroaniline (p-NA, the chromogenic product of the proteolytic activity), was determined by change in absorbance at 405 nm. The equilibrium rates were used to calculate the inhibitor/enzyme dissociation constant (Ki values) by parameter fitting in accordance with the rate equation for competitive inhibition using GraFit (version 4 from Erithacus). The results are reported as Ki values (nanomolar) in table 7 and are the average of at least three determinations.
# T1 sequence (P00742 235-488 limits assumed): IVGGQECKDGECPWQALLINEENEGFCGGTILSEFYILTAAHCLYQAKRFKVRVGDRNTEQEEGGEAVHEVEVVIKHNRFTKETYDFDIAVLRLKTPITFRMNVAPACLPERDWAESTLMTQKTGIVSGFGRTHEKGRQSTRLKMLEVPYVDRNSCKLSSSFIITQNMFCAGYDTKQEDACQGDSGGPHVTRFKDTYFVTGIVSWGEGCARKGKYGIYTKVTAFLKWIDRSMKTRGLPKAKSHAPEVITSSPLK
# T1 sequence (P00742 41-179 partner limits assumed): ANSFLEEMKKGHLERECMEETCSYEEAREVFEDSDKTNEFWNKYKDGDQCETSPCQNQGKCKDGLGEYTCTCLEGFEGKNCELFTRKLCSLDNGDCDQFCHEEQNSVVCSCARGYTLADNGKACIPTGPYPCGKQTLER
row,Compound,Ki [µM]
1,NCc1ccc(Cl)cc1CNC(=O)[C@@H]1CCCN1C(=O)[C@@H](CCC(=O)N1CCC(N)CC1)NS(=O)(=O)Cc1ccccc1 [Compound 2.32],0.033
2,NCc1ccc(Cl)cc1CNC(=O)[C@@H]1CCCN1C(=O)[C@@H](CCC(=O)N1CCOCC1)NC(=O)OCc1ccccc1 [Compound 2.33],0.0088
3,NCc1ccc(Cl)cc1CNC(=O)[C@@H]1CCCN1C(=O)[C@@H](CC(=O)Nc1ccncc1)NS(=O)(=O)Cc1ccccc1 [Compound 2.34],0.021
4,NCc1ccc(Cl)cc1CNC(=O)[C@@H]1C[C@H](N)CN1C(=O)[C@@H](CC(=O)N1CCNCC1)NS(=O)(=O)Cc1ccccc1 [Compound 2.35],0.00079

# Biological target: T2, Human tissue-type plasminogen activator (h t-PA) (Homo sapiens, UniProt P00750)
# T2 construct: purchased Boehringer Ingelheim Actilyse
# Test: Inhibition of human tissue-type plasminogen activator (reference enzyme)
# Format: biochemical
# Settings: Pefachrome tPA substrate; read-out: Ki h t-PA
# Description: The equilibrium rates were used to calculate the inhibitor/enzyme dissociation constant (Ki values) by parameter fitting in accordance with the rate equation for competitive inhibition using GraFit (version 4 from Erithacus).
# (§4) Dissociation constants were calculated as described herein.
# T2 sequence (P00750 36-562): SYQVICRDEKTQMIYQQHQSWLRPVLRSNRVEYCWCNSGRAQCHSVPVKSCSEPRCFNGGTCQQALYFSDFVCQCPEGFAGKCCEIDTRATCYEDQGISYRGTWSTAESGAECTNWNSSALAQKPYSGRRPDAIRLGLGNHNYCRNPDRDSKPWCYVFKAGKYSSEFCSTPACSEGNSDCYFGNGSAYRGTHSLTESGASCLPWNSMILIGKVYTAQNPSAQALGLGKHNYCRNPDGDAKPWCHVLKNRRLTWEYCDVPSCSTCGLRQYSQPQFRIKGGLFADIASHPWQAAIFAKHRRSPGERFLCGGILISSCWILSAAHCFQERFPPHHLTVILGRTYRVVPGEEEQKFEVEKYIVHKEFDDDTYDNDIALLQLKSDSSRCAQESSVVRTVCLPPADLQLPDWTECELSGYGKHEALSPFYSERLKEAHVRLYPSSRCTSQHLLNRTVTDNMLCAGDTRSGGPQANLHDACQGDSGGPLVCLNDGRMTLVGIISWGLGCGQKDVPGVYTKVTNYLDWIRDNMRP
row,Compound,Ki [µM]
1,NCc1ccc(Cl)cc1CNC(=O)[C@@H]1CCCN1C(=O)[C@@H](CCC(=O)N1CCC(N)CC1)NS(=O)(=O)Cc1ccccc1 [Compound 2.32],> 50
2,NCc1ccc(Cl)cc1CNC(=O)[C@@H]1CCCN1C(=O)[C@@H](CCC(=O)N1CCOCC1)NC(=O)OCc1ccccc1 [Compound 2.33],> 20
3,NCc1ccc(Cl)cc1CNC(=O)[C@@H]1CCCN1C(=O)[C@@H](CC(=O)Nc1ccncc1)NS(=O)(=O)Cc1ccccc1 [Compound 2.34],> 100
4,NCc1ccc(Cl)cc1CNC(=O)[C@@H]1C[C@H](N)CN1C(=O)[C@@H](CC(=O)N1CCNCC1)NS(=O)(=O)Cc1ccccc1 [Compound 2.35],1

# Biological target: T3, Subcomponent "s" of Human Complement Component 1 (h C1s) (Homo sapiens, UniProt P09871)
# T3 construct: purchased Calbiochem
# T3 sequence (P09871 438-688 limits assumed): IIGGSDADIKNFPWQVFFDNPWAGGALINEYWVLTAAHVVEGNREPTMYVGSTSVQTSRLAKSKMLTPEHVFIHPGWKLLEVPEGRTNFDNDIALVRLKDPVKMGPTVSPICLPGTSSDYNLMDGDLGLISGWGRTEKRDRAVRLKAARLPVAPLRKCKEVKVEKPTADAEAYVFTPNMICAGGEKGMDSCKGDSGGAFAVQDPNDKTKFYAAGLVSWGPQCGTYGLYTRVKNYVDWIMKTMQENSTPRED
# T3 sequence (P09871 16-437 partner limits assumed): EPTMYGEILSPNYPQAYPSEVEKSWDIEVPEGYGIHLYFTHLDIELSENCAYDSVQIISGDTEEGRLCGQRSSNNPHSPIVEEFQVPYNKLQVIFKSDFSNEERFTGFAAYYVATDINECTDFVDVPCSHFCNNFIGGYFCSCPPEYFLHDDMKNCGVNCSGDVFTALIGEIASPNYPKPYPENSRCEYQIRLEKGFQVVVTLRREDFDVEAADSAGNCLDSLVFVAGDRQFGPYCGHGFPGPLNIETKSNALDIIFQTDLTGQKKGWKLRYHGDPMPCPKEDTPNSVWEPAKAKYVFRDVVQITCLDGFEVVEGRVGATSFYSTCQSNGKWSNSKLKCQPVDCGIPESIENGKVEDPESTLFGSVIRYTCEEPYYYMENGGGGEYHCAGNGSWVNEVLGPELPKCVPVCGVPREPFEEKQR
# Test: Inhibition of human C1s (reference enzyme)
# Format: biochemical
# Settings: S-2314 substrate; read-out: Ki h Cls
# Description: as §1, §3, §4
row,Compound,Ki [µM]
1,NCc1ccc(Cl)cc1CNC(=O)[C@@H]1CCCN1C(=O)[C@@H](CCC(=O)N1CCC(N)CC1)NS(=O)(=O)Cc1ccccc1 [Compound 2.32],> 100
2,NCc1ccc(Cl)cc1CNC(=O)[C@@H]1CCCN1C(=O)[C@@H](CCC(=O)N1CCOCC1)NC(=O)OCc1ccccc1 [Compound 2.33],> 50
3,NCc1ccc(Cl)cc1CNC(=O)[C@@H]1CCCN1C(=O)[C@@H](CC(=O)Nc1ccncc1)NS(=O)(=O)Cc1ccccc1 [Compound 2.34],> 100
4,NCc1ccc(Cl)cc1CNC(=O)[C@@H]1C[C@H](N)CN1C(=O)[C@@H](CC(=O)N1CCNCC1)NS(=O)(=O)Cc1ccccc1 [Compound 2.35],> 15

# Biological target: T4, Human urinary kallikrein (h uKK) (Homo sapiens, UniProt P06870)
# T4 construct: purchased Lee Biosolutions
# Test: Inhibition of human urinary kallikrein (reference enzyme)
# Format: biochemical
# Settings: S-2266 substrate
# Description: as §1, §3, §4
# T4 sequence (P06870 25-262): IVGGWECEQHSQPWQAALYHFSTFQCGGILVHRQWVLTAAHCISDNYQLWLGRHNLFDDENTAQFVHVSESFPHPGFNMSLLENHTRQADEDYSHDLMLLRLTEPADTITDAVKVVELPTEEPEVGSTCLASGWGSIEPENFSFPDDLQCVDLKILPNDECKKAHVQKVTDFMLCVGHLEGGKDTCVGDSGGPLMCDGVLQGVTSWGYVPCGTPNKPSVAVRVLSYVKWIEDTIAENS
row,Compound,Ki [µM]
1,NCc1ccc(Cl)cc1CNC(=O)[C@@H]1CCCN1C(=O)[C@@H](CCC(=O)N1CCC(N)CC1)NS(=O)(=O)Cc1ccccc1 [Compound 2.32],> 10
2,NCc1ccc(Cl)cc1CNC(=O)[C@@H]1CCCN1C(=O)[C@@H](CCC(=O)N1CCOCC1)NC(=O)OCc1ccccc1 [Compound 2.33],> 40
3,NCc1ccc(Cl)cc1CNC(=O)[C@@H]1CCCN1C(=O)[C@@H](CC(=O)Nc1ccncc1)NS(=O)(=O)Cc1ccccc1 [Compound 2.34],> 100
4,NCc1ccc(Cl)cc1CNC(=O)[C@@H]1C[C@H](N)CN1C(=O)[C@@H](CC(=O)N1CCNCC1)NS(=O)(=O)Cc1ccccc1 [Compound 2.35],> 50

# Biological target: T5, Human Activated Protein C (h aPC) (Homo sapiens, UniProt P04070)
# T5 construct: purchased Enzyme Research Laboratories
# Test: Inhibition of human activated protein C (reference enzyme)
# Format: biochemical
# Settings: Pefachrome PCa substrate
# Description: as §1, §3, §4
# T5 sequence (P04070 212-450 limits assumed): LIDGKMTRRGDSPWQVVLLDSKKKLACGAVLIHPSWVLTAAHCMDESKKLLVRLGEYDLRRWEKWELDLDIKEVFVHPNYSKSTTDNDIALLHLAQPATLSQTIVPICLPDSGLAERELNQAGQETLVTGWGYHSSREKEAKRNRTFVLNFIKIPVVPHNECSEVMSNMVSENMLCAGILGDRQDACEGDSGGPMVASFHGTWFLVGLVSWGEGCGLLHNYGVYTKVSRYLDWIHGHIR
# T5 sequence (P04070 43-197 partner limits assumed): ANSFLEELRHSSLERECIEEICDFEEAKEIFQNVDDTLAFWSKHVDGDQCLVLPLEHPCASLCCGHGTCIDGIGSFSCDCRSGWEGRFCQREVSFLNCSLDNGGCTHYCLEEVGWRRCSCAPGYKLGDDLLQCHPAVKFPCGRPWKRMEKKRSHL
row,Compound,Ki [µM]
1,NCc1ccc(Cl)cc1CNC(=O)[C@@H]1CCCN1C(=O)[C@@H](CCC(=O)N1CCC(N)CC1)NS(=O)(=O)Cc1ccccc1 [Compound 2.32],> 100
2,NCc1ccc(Cl)cc1CNC(=O)[C@@H]1CCCN1C(=O)[C@@H](CCC(=O)N1CCOCC1)NC(=O)OCc1ccccc1 [Compound 2.33],> 30
3,NCc1ccc(Cl)cc1CNC(=O)[C@@H]1CCCN1C(=O)[C@@H](CC(=O)Nc1ccncc1)NS(=O)(=O)Cc1ccccc1 [Compound 2.34],> 100
4,NCc1ccc(Cl)cc1CNC(=O)[C@@H]1C[C@H](N)CN1C(=O)[C@@H](CC(=O)N1CCNCC1)NS(=O)(=O)Cc1ccccc1 [Compound 2.35],> 100

# Biological target: T6, Human urokinase type plasminogen activator (h u-PA) (Homo sapiens, UniProt P00749)
# T6 construct: purchased MEDAC GmbH Urokinase HS medac
# Test: Inhibition of human urokinase type plasminogen activator (reference enzyme)
# Format: biochemical
# Settings: H-Glu-Gly-Arg-pNA substrate
# Description: as §1, §3, §4
row,Compound,Ki [µM]
1,NCc1ccc(Cl)cc1CNC(=O)[C@@H]1CCCN1C(=O)[C@@H](CCC(=O)N1CCC(N)CC1)NS(=O)(=O)Cc1ccccc1 [Compound 2.32],> 100
2,NCc1ccc(Cl)cc1CNC(=O)[C@@H]1CCCN1C(=O)[C@@H](CCC(=O)N1CCOCC1)NC(=O)OCc1ccccc1 [Compound 2.33],> 50
3,NCc1ccc(Cl)cc1CNC(=O)[C@@H]1CCCN1C(=O)[C@@H](CC(=O)Nc1ccncc1)NS(=O)(=O)Cc1ccccc1 [Compound 2.34],> 100
4,NCc1ccc(Cl)cc1CNC(=O)[C@@H]1C[C@H](N)CN1C(=O)[C@@H](CC(=O)N1CCNCC1)NS(=O)(=O)Cc1ccccc1 [Compound 2.35],> 20

# Biological target: T7, Human plasmin (h plasmin) (Homo sapiens, UniProt P00747)
# T7 construct: purchased Calbiochem
# Test: Inhibition of human plasmin (reference enzyme)
# Format: biochemical
# Settings: Chromozym PL substrate
# Description: as §1, §3, §4
# T7 sequence (P00747 581-810 limits assumed): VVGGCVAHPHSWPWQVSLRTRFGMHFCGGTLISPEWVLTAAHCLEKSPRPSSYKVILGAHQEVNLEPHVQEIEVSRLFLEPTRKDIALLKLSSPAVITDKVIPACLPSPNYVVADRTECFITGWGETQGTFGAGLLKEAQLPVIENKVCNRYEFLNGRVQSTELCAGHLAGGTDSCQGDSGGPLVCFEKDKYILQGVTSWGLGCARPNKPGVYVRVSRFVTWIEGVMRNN
# T7 sequence (P00747 97-580 partner limits assumed): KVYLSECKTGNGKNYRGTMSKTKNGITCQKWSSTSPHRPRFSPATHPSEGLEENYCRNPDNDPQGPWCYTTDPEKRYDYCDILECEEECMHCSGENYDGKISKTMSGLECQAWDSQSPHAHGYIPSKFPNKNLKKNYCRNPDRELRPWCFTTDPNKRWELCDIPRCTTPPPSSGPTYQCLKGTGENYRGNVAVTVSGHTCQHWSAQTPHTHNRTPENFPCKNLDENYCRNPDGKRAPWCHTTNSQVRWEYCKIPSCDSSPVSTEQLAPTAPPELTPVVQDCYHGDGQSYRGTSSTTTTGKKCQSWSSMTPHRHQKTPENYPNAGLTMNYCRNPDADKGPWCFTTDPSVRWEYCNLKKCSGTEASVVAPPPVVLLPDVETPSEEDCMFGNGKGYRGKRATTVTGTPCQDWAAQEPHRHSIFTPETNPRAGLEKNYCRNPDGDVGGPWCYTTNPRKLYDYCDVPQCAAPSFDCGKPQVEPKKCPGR
row,Compound,Ki [µM]
1,NCc1ccc(Cl)cc1CNC(=O)[C@@H]1CCCN1C(=O)[C@@H](CCC(=O)N1CCC(N)CC1)NS(=O)(=O)Cc1ccccc1 [Compound 2.32],> 20
2,NCc1ccc(Cl)cc1CNC(=O)[C@@H]1CCCN1C(=O)[C@@H](CCC(=O)N1CCOCC1)NC(=O)OCc1ccccc1 [Compound 2.33],> 20
3,NCc1ccc(Cl)cc1CNC(=O)[C@@H]1CCCN1C(=O)[C@@H](CC(=O)Nc1ccncc1)NS(=O)(=O)Cc1ccccc1 [Compound 2.34],> 20
4,NCc1ccc(Cl)cc1CNC(=O)[C@@H]1C[C@H](N)CN1C(=O)[C@@H](CC(=O)N1CCNCC1)NS(=O)(=O)Cc1ccccc1 [Compound 2.35],> 3

# Biological target: T8, Subcomponent "r" of Human Complement Component 1 (h C1r) (Homo sapiens, UniProt P00736)
# T8 construct: purchased Calbiochem
# T8 sequence (P00736 464-705 limits assumed): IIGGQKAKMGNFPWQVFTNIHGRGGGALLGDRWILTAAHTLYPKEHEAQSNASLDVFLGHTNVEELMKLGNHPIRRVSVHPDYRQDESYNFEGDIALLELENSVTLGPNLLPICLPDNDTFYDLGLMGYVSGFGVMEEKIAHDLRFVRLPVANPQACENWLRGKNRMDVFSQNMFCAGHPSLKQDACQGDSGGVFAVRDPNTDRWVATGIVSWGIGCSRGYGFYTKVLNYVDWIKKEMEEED
# T8 sequence (P00736 18-463 partner limits assumed): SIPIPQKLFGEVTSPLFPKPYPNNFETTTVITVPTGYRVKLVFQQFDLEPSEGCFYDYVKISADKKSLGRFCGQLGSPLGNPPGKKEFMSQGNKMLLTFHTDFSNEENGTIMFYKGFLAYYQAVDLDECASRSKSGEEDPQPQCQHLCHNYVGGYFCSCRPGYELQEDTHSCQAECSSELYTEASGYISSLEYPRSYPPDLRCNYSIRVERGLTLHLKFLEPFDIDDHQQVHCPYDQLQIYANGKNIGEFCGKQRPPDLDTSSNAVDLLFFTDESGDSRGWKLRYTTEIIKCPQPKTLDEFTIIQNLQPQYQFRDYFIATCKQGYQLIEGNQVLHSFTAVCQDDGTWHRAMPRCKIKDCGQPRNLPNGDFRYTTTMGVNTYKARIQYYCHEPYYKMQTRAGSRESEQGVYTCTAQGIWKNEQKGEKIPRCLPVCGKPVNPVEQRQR
# Test: Inhibition of human C1r (reference enzyme)
# Format: biochemical
# Settings: S-2314 substrate; read-out: Ki h Clr
# Description: as §1, §3, §4
row,Compound,Ki [µM]
1,NCc1ccc(Cl)cc1CNC(=O)[C@@H]1CCCN1C(=O)[C@@H](CCC(=O)N1CCC(N)CC1)NS(=O)(=O)Cc1ccccc1 [Compound 2.32],> 100
2,NCc1ccc(Cl)cc1CNC(=O)[C@@H]1CCCN1C(=O)[C@@H](CCC(=O)N1CCOCC1)NC(=O)OCc1ccccc1 [Compound 2.33],> 100
3,NCc1ccc(Cl)cc1CNC(=O)[C@@H]1CCCN1C(=O)[C@@H](CC(=O)Nc1ccncc1)NS(=O)(=O)Cc1ccccc1 [Compound 2.34],> 100
4,NCc1ccc(Cl)cc1CNC(=O)[C@@H]1C[C@H](N)CN1C(=O)[C@@H](CC(=O)N1CCNCC1)NS(=O)(=O)Cc1ccccc1 [Compound 2.35],> 100

# Biological target: T9, human factor IIa (human alpha-thrombin) (Homo sapiens, UniProt P00734)
# T9 construct: human alpha-thrombin from Enzyme Research Laboratories; purchased Enzyme Research Laboratories
# Test: Inhibition constants for human factor IIa, chromogenic substrate assay
# Format: biochemical
# Settings: 25° C., Pefachrome tPA substrate, average of at least three determinations; read-out: Ki h FIIa
# Description: as §1, §2, §3
row,Compound,Ki [µM]
1,NCc1ccc(Cl)cc1CNC(=O)[C@@H]1CCCN1C(=O)[C@@H](CCC(=O)N1CCC(N)CC1)NS(=O)(=O)Cc1ccccc1 [Compound 2.32],0.00015
2,NCc1ccc(Cl)cc1CNC(=O)[C@@H]1CCCN1C(=O)[C@@H](CCC(=O)N1CCOCC1)NC(=O)OCc1ccccc1 [Compound 2.33],0.0014
3,NCc1ccc(Cl)cc1CNC(=O)[C@@H]1CCCN1C(=O)[C@@H](CC(=O)Nc1ccncc1)NS(=O)(=O)Cc1ccccc1 [Compound 2.34],0.0017
4,NCc1ccc(Cl)cc1CNC(=O)[C@@H]1C[C@H](N)CN1C(=O)[C@@H](CC(=O)N1CCNCC1)NS(=O)(=O)Cc1ccccc1 [Compound 2.35],0.0044

# Biological target: T10, Human plasma kallikrein (h PK) (Homo sapiens, UniProt P03952)
# T10 construct: purchased Enzyme Research Laboratories
# Test: Inhibition of human plasma kallikrein (reference enzyme)
# Format: biochemical
# Settings: S2302 substrate
# Description: as §1, §3, §4
# T10 sequence (P03952 391-638 limits assumed): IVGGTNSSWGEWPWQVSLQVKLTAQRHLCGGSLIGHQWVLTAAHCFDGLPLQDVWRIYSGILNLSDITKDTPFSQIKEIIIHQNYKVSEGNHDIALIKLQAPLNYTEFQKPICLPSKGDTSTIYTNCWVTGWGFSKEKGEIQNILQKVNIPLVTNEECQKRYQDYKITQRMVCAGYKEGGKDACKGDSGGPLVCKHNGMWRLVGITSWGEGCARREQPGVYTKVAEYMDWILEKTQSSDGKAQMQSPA
# T10 sequence (P03952 20-390 partner limits assumed): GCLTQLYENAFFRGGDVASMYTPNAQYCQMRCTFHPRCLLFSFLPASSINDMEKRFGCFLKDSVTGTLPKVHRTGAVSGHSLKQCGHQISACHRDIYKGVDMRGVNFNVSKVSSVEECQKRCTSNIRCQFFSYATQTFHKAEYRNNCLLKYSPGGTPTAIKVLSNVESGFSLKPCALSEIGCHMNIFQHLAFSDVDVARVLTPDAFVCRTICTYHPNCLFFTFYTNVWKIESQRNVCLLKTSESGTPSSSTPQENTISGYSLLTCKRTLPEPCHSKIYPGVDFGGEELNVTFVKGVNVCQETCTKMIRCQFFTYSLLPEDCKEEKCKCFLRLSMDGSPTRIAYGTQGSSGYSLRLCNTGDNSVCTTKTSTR
row,Compound,Ki [µM]
1,NCc1ccc(Cl)cc1CNC(=O)[C@@H]1CCCN1C(=O)[C@@H](CCC(=O)N1CCC(N)CC1)NS(=O)(=O)Cc1ccccc1 [Compound 2.32],3.06
2,NCc1ccc(Cl)cc1CNC(=O)[C@@H]1CCCN1C(=O)[C@@H](CCC(=O)N1CCOCC1)NC(=O)OCc1ccccc1 [Compound 2.33],6.06
3,NCc1ccc(Cl)cc1CNC(=O)[C@@H]1CCCN1C(=O)[C@@H](CC(=O)Nc1ccncc1)NS(=O)(=O)Cc1ccccc1 [Compound 2.34],1.76
4,NCc1ccc(Cl)cc1CNC(=O)[C@@H]1C[C@H](N)CN1C(=O)[C@@H](CC(=O)N1CCNCC1)NS(=O)(=O)Cc1ccccc1 [Compound 2.35],0.351
